Results taken from PubChem BioAssay AID248 (DTP/NCI, 2004).
Values joined by “and” are separate entries in the source; they are usually repeats but may differ in a detail not shown here. Equal entries are not always repeated. Inconclusive results and toxic doses are left out. No stated cut-off is given here; in the data, active means T/C of 150% or more; inactive means T/C below 125%.

Tested on: L1210 leukemia ip in BDF1 mice, survival T/C
Test: NCI In Vivo Anticancer Drug Screen. Data for tumor model L1210 Leukemia (intraperitoneal) in B6D2F1 (BDF1) mice
Conditions: endpoint: mean survival time, higher = longer survival
Method in brief: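 Mice bearing the transplanted tumor received compound or vehicle. Survival of the treated group was divided by that of the vehicle-treated control group to give the ratio.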

[1] = dose: 100.0 mg/kg/injection, schedule: Q04DX003 (ip), vehicle: saline
[2] = dose: 200.0 mg/kg/injection, schedule: Q04DX003 (ip), vehicle: saline
[3] = dose: 100.0 mg/kg/injection, schedule: Q04DX003 (ip), vehicle: Klucel (hydroxypropylcellulose) (HPC)
[4] = dose: 200.0 mg/kg/injection, schedule: Q04DX003 (ip), vehicle: Klucel (hydroxypropylcellulose) (HPC)
[5] = dose: 400.0 mg/kg/injection, schedule: Q04DX003 (ip), vehicle: Klucel (hydroxypropylcellulose) (HPC)
[6] = dose: 100.0 mg/kg/injection, schedule: Q01DX001 (ip), vehicle: saline
[7] = dose: 200.0 mg/kg/injection, schedule: Q01DX001 (ip), vehicle: saline
[8] = dose: 400.0 mg/kg/injection, schedule: Q01DX001 (ip), vehicle: saline
[9] = dose: 100.0 mg/kg/injection, schedule: Q04DX003 (ip), vehicle: saline with Tween-80
[10] = dose: 200.0 mg/kg/injection, schedule: Q04DX003 (ip), vehicle: saline with Tween-80
[11] = dose: 400.0 mg/kg/injection, schedule: Q04DX003 (ip), vehicle: saline

Measured: T/C

CC1(Br)OC(=O)C(C)(Br)OC1=O (stereo not drawn)
inactive: [1] 96 % of control | [2] 96 % of control

O=[N+]([O-])c1ccc(Oc2cccc(C(F)(F)F)c2)cc1
inactive: [3] 95 % of control | [4] 96 % of control | [5] 96 % of control

COC(OC)c1[nH]c(=O)[nH]c(=O)c1F.[Hg]
inactive: dose: 3.0 mg/kg/injection, schedule: Q01DX009 (ip), vehicle: saline 97 % of control | dose: 6.0 mg/kg/injection, schedule: Q01DX009 (ip), vehicle: saline 97 % of control | dose: 12.0 mg/kg/injection, schedule: Q04DX003 (ip), vehicle: saline 98 % of control

N#Cc1cc(Cl)ccc1Cl
inactive: dose: 100.0 mg/kg/injection, schedule: Q01DX009 (ip), vehicle: gum acacia 100 % of control | dose: 100.0 mg/kg/injection, schedule: Q04DX003 (ip), vehicle: gum acacia 98 % of control | dose: 200.0 mg/kg/injection, schedule: Q01DX009 (ip), vehicle: gum acacia 103 % of control | dose: 200.0 mg/kg/injection, schedule: Q04DX003 (ip), vehicle: gum acacia 95 % of control | dose: 400.0 mg/kg/injection, schedule: Q01DX009 (ip), vehicle: gum acacia 95 % of control | dose: 400.0 mg/kg/injection, schedule: Q04DX003 (ip), vehicle: gum acacia 93 % of control

CCNS(=O)(=O)c1ncnc2nc[nH]c12
inactive: dose: 44.0 mg/kg/injection, schedule: Q01DX Z (ip), vehicle: carboxymethylcellulose (CMC) 117 % of control | dose: 44.0 mg/kg/injection, schedule: Q01DX Z (ip), vehicle: methylcellulose (MC) 98 % of control | dose: 66.0 mg/kg/injection, schedule: Q01DX Z (ip), vehicle: carboxymethylcellulose (CMC) 123 % of control | dose: 66.0 mg/kg/injection, schedule: Q01DX Z (ip), vehicle: methylcellulose (MC) 102 % of control | dose: 100.0 mg/kg/injection, schedule: Q01DX Z (ip), vehicle: methylcellulose (MC) 106 % of control | dose: 150.0 mg/kg/injection, schedule: Q01DX Z (ip), vehicle: methylcellulose (MC) 102 % of control

COc1cc(N)c2ncccc2c1[N+](=O)[O-]
inactive: dose: 50.0 mg/kg/injection, schedule: Q01DX001 (ip), vehicle: saline 112 % of control | [6] 106 % of control | [7] 106 % of control | [8] 104 % of control

CC(C)(C)CC(CC(C)(C)C)C(=O)O
inactive: dose: 106.0 mg/kg/injection, schedule: Q01DX Z (ip), vehicle: other 94 % of control | dose: 160.0 mg/kg/injection, schedule: Q01DX Z (ip), vehicle: other 102 % of control | dose: 240.0 mg/kg/injection, schedule: Q01DX Z (ip), vehicle: other 96 % of control and 103 % of control | dose: 360.0 mg/kg/injection, schedule: Q01DX Z (ip), vehicle: other 101 % of control and 89 % of control | dose: 540.0 mg/kg/injection, schedule: Q01DX Z (ip), vehicle: other 86 % of control

CC(C)OC(=O)C#CC(=O)O
inactive: [6] 98 % of control

O=C(Nc1ccc(C2=NCCN2)c(O)c1)c1ccc(C(=O)Nc2ccc(C3=NCCN3)c(O)c2)cc1
inactive: dose: 8.0 mg/kg/injection, schedule: Q01DX Z (ip), vehicle: carboxymethylcellulose (CMC) 103 % of control | dose: 16.0 mg/kg/injection, schedule: Q01DX Z (ip), vehicle: carboxymethylcellulose (CMC) 88 % of control | dose: 31.0 mg/kg/injection, schedule: Q01DX Z (ip), vehicle: carboxymethylcellulose (CMC) 88 % of control | dose: 62.0 mg/kg/injection, schedule: Q01DX Z (ip), vehicle: carboxymethylcellulose (CMC) 90 % of control

c1cc2c(cc1CCc1ccc3c(c1)OCO3)OCO2
inactive: dose: 100.0 mg/kg/injection, schedule: Q04DX002 (ip), vehicle: Klucel (hydroxypropylcellulose) (HPC) 96 % of control | dose: 200.0 mg/kg/injection, schedule: Q04DX002 (ip), vehicle: Klucel (hydroxypropylcellulose) (HPC) 86 % of control | dose: 400.0 mg/kg/injection, schedule: Q04DX002 (ip), vehicle: Klucel (hydroxypropylcellulose) (HPC) 104 % of control

COc1ccc(C2OC23CC(C)(C)c2ccccc2C3=O)cc1 (stereo not drawn)
inactive: [9] 93 % of control | [10] 89 % of control | dose: 400.0 mg/kg/injection, schedule: Q04DX003 (ip), vehicle: saline with Tween-80 94 % of control

CNC/C(C)=C/Br
inactive: dose: 100.0 mg/kg/injection, schedule: Q04DX003 (ip), vehicle: acetone 101 % of control | [9] 103 % of control | dose: 200.0 mg/kg/injection, schedule: Q04DX003 (ip), vehicle: acetone 92 % of control | [10] 97 % of control

NC(=O)c1cccc(Cl)n1
inactive: dose: 12.5 mg/kg/injection, schedule: Q04DX002 (ip), vehicle: Klucel (hydroxypropylcellulose) (HPC) 92 % of control | dose: 25.0 mg/kg/injection, schedule: Q04DX002 (ip), vehicle: Klucel (hydroxypropylcellulose) (HPC) 87 % of control | dose: 50.0 mg/kg/injection, schedule: Q04DX002 (ip), vehicle: Klucel (hydroxypropylcellulose) (HPC) 90 % of control

C=C(Cl)COCC1CO1 (stereo not drawn)
inactive: dose: 44.0 mg/kg/injection, schedule: Q01DX Z (ip), vehicle: saline 92 % of control | dose: 66.0 mg/kg/injection, schedule: Q01DX Z (ip), vehicle: saline 110 % of control | dose: 100.0 mg/kg/injection, schedule: Q01DX Z (ip), vehicle: saline 94 % of control

CC(=O)OCC(OC(C)=O)C(OC(C)=O)C(Cn1c(=O)cc(C)c2ccc(C)c(C)c21)OC(C)=O (stereo not drawn)
inactive: [6] 88 % of control | [7] 93 % of control | [8] 88 % of control

CN(C)CCN(C)Cc1cc(=O)[nH]c(=O)[nH]1
inactive: [1] 96 % of control | [2] 100 % of control | [11] 100 % of control

CCCCCOC(=O)c1ccc(C)s1
inactive: dose: 100.0 mg/kg/injection, schedule: Q01DX001 (ip), vehicle: carboxymethylcellulose (CMC) 90 % of control | dose: 200.0 mg/kg/injection, schedule: Q01DX001 (ip), vehicle: carboxymethylcellulose (CMC) 101 % of control | dose: 400.0 mg/kg/injection, schedule: Q01DX001 (ip), vehicle: carboxymethylcellulose (CMC) 98 % of control

O=C(c1cccc([N+](=O)[O-])c1)c1[nH]c2sc3c(c2c1O)CCCC3
inactive: dose: 6.25 mg/kg/injection, schedule: Q01DX009 (ip), vehicle: Klucel (hydroxypropylcellulose) (HPC) 92 % of control | dose: 12.5 mg/kg/injection, schedule: Q01DX009 (ip), vehicle: Klucel (hydroxypropylcellulose) (HPC) 94 % of control and 91 % of control | dose: 25.0 mg/kg/injection, schedule: Q01DX009 (ip), vehicle: Klucel (hydroxypropylcellulose) (HPC) 89 % of control

CCOC(=O)C1(C(=O)OCC)COC(C)(C)OC1
inactive: [1] 103 % of control | [2] 118 % of control | [11] 106 % of control

CCC(=O)Nc1cccc(C)c1C
inactive: dose: 100.0 mg/kg/injection, schedule: Q01DX009 (ip), vehicle: Klucel (hydroxypropylcellulose) (HPC) 93 % of control | [3] 102 % of control | dose: 200.0 mg/kg/injection, schedule: Q01DX009 (ip), vehicle: Klucel (hydroxypropylcellulose) (HPC) 106 % of control | [4] 102 % of control | [5] 95 % of control

O=C(O)CCCCCCCCCCN1C(=O)c2cccc([N+](=O)[O-])c2C1=O
inactive: dose: 87.5 mg/kg/injection, schedule: Q04DX003 (ip), vehicle: carboxymethylcellulose (CMC) 101 % of control | dose: 175.0 mg/kg/injection, schedule: Q04DX003 (ip), vehicle: carboxymethylcellulose (CMC) 97 % of control | dose: 350.0 mg/kg/injection, schedule: Q04DX003 (ip), vehicle: carboxymethylcellulose (CMC) 87 % of control
